Experimental data from patent publication US9993554B2 (CENTRO NACIONAL DE INVESTIGACIONES ONCOLOGICAS (CNIO), priority 2010, dated 2018).

Molecular target: T1, PI3K (p110α/p85α) (Homo sapiens, UniProt P42336)
T1 construct: purchased Carna Biosciences 07CBS-0402A
Experiment: PI3K activity assay (ADP Hunter Plus)
Type: biochemical
Conditions: quantitative results, Table 4; read-out: PI3Kα IC50
Description: The kinase activity was measured by using the commercial ADP Hunter™ Plus assay available from DiscoveRx (#33-016), which is a homogeneous assay to measure the accumulation of ADP, a universal product of kinase activity. […] Reaction was carried out for 1 hour at 25° C. Reagent A and B were sequentially added to the wells and plates were incubated for 30 min at 37° C. […] Values were normalized against the control activity included for each enzyme (i.e., 100% PI3 kinase activity, without compound). These values were plot against the inhibitor concentration and were fit to a sigmoid dose-response curve by using the Graphad software.

T1 sequence (P42336 whole entry): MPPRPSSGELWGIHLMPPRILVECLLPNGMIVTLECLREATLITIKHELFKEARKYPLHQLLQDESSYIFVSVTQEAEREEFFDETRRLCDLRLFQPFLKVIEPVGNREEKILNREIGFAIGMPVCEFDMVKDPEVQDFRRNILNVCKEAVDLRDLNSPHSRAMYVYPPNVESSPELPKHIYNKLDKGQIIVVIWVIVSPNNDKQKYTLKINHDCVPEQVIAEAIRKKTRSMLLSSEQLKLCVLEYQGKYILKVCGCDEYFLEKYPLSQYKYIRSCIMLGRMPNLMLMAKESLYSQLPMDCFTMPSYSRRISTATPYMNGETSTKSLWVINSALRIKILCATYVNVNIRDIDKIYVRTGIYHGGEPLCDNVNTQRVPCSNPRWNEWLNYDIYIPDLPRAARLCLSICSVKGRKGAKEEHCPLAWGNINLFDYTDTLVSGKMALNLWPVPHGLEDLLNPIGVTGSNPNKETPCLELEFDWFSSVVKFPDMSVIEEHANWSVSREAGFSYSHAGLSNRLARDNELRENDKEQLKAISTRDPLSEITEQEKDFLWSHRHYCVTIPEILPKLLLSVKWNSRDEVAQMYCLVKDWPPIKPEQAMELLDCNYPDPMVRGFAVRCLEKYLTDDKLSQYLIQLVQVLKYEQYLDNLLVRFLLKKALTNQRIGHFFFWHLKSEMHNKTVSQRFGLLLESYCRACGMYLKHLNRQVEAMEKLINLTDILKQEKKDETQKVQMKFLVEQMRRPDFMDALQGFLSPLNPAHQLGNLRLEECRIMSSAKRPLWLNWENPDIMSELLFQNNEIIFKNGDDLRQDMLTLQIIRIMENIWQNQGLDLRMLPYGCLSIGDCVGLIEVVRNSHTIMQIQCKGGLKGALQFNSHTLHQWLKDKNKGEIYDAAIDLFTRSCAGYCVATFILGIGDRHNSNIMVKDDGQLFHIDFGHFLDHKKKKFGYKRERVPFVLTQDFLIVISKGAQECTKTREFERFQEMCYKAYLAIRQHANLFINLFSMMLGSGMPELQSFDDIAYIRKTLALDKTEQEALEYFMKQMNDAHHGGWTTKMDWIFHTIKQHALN
T1 sequence (P27986 whole entry partner): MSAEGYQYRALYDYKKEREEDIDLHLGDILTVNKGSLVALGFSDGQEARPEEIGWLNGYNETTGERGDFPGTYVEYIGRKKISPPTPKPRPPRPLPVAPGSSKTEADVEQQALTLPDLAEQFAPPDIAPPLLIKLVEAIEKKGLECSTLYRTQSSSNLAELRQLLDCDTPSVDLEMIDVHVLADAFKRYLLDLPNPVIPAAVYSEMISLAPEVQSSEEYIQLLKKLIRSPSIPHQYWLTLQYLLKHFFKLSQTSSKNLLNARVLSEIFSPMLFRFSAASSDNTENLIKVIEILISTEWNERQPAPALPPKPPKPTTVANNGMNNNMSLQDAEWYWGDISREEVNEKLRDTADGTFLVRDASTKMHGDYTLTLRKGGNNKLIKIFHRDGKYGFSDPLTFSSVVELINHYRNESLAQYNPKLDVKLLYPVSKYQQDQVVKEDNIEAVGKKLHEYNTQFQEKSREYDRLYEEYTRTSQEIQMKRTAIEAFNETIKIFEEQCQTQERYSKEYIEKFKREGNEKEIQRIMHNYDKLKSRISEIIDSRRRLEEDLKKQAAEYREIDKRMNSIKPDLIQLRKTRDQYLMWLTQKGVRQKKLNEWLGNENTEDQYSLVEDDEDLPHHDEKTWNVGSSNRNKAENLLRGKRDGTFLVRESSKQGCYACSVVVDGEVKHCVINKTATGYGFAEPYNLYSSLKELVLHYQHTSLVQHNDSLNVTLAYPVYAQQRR

Row | IC50 [nM] | Compound
1 | 37000 | CS(=O)(=O)N1CCN(Cc2cn3cc(-c4ccc5[nH]ncc5c4)nc(N4CCOCC4)c3n2)CC1 [Compound 2-127]
2 | 3000 | CS(=O)(=O)N1CC2(CCN(Cc3cn4cc(-c5cccc6[nH]ncc56)nc(N5CCOCC5)c4n3)CC2)C1 [Compound 2-145]

Same assay, conditions: quantitative results; read-out: PI3Kα IC50

Row | IC50 [nM] | Compound
3 | 10000 | Cc1cn2cc(-c3ccc4cc[nH]c4c3)nc(N3CCOCC3)c2n1 [Compound 2-25]
4 | 158 | CNC(=O)Nc1ccc(-c2cn3cc(CN4CCN(S(C)(=O)=O)CC4)nc3c(N3CCOCC3)n2)cc1 [Compound 2-82]
5 | 169 | CS(=O)(=O)N1CCN(Cc2cn3cc(-c4ccc(N)nc4)nc(N4CCOCC4)c3n2)CC1 [Compound 2-66]
6 | 50000 | Cc1cn2cc(-c3cccc(NS(C)(=O)=O)c3)nc(N3CCOCC3)c2n1 [Compound 2-28]
7 | 113 | CS(=O)(=O)N1CCN(Cc2cn3cc(-c4cnc5[nH]ccc5c4)nc(N4CCOCC4)c3n2)CC1 [Compound 2-75]
8 | 4500 | COc1ccc(-c2cn3cc(CN4CCN(S(C)(=O)=O)CC4)nc3c(N3CCOCC3)n2)cn1 [Compound 2-61]
9 | 11000 | CS(=O)(=O)N1CCN(Cc2cn3cc(-c4ccc(C(N)=O)cc4)nc(N4CCOCC4)c3n2)CC1 [Compound 2-68]

Row | Compound | IC50 [nM]
10 | CS(=O)(=O)N1C2CCC1CN(Cc1cn3cc(-c4cnc(N)nc4)nc(N4CCOCC4)c3n1)C2 [Compound 2-228] | 108

Same assay, conditions: semi-quantitative results; read-out: PI3Kα IC50 (semi-quantitative class)

Row | Compound | IC50 [nM]
11 | Cc1cn2c(Cl)c(-c3cccc(O)c3)nc(N3CCOCC3)c2n1 [Compound 2-49] | 100 to 1000
12 | COc1ncc(-c2cn3cc(CN4CCN(S(C)(=O)=O)CC4)nc3c(N3CCOCC3)n2)cn1 [Compound 2-67] | 100 to 1000
13 | COc1cncc(-c2cn3cc(CN4CCN(S(C)(=O)=O)CC4)nc3c(N3CCOCC3)n2)c1 [Compound 2-65] | > 1000

Now from value to compound:

Row | IC50 [nM] | Compound
14 | 100 to 1000 | CN1CCN(c2cnc3c(N4CCOCC4)nc(-c4cccc5[nH]ncc45)cn23)CC1 [Compound 2-38]
15 | 100 to 1000 | Cc1nc2c(N3CCOCC3)nc(-c3cccc4[nH]ncc34)cn2c1C1CCN(C)CC1 [Compound 2-58]
16 | 100 to 1000 | O=C(c1cn2cc(-c3cccc4[nH]ncc34)nc(N3CCOCC3)c2n1)N1CCNCC1 [Compound 2-18]
17 | 100 to 1000 | CS(=O)(=O)N1CCN(Cc2cn3c(Cl)c(-c4cccc5[nH]ncc45)nc(N4CCOCC4)c3n2)CC1 [Compound 2-60]
18 | 100 to 1000 | CN1CCN(c2cnc3c(N4CCOCC4)nc(-c4cccc(O)c4)cn23)CC1 [Compound 2-37]
19 | 100 to 1000 | CS(=O)(=O)N1CCN(c2cnc3c(N4CCOCC4)nc(-c4cccc(O)c4)cn23)CC1 [Compound 2-39]
20 | 100 to 1000 | Oc1cccc(-c2cn3c(N4CCNCC4)cnc3c(N3CCOCC3)n2)c1 [Compound 2-40]
21 | 100 to 1000 | CS(=O)(=O)N1CCN(c2cnc3c(N4CCOCC4)nc(-c4cccc5[nH]ncc45)cn23)CC1 [Compound 2-41]
22 | 100 to 1000 | CS(=O)(=O)N1CCN(C(=O)c2cn3cc(-c4cccc5[nH]ncc45)nc(N4CCOCC4)c3n2)CC1 [Compound 2-16]

Test system: phospho-Ser-473-Akt
Experiment: AKT phosphorylation inhibition, Western blot cell assay
Type: cell-based
Conditions: Homo sapiens; cell assay procedure; read-out: IC50 of AKT Phosphorylation Inhibition, p-AKT cell
Description: The cell lines were obtained from the American Type Culture Collection (ATCC). U2OS (human osteosarcoma) was cultured in Dulbecco's modified Eagle's medium (DMEM). PC3 (human prostate carcinoma), MCF7 (human breast cardinoma), HCT116 (human colon carcinoma), 768-0 (human neuroblastoma), U251 (human glyoblastoma) were grown in RPMI. All media were supplemented with 10% fetal bovine serum (FBS) (Sigma) and antibiotics-antimycotics. Cell were maintained in a humidified incubator at 37° C. with 5% CO2 and passaged when confluent using trypsin/EDTA.
Subconfluent cells were incubated under different conditions and washed twice with TBS prior to lysis. Lysis buffer was added containing 50 mM Tris HCl, 150 mM NaCl, 1% NP-40, 2 mM Na3VO4, 100 mM NaF, 20 mM Na4P2O7 and protease inhibitor cocktail (Roche Molecular Biochemicals). The proteins were resolved on 10% SDS-PAGE and transferred to nitrocellulose membrane (Schleicher & Schuell, Dassel, Germany). The membranes were incubated overnight at 4° C. with antibodies specific for Akt, phospho-Ser-473-Akt (Cell Signaling Technology) and α-tubulin (Sigma), they were washed and then incubated with IRDye800 conjugated anti-mouse and Alexa Fluor 680 goat anti-rabbit IgG secondary antibodies. The bands were visualized using an Odyssey infrared imaging system (Li-Cor Biosciences).

Row | IC50 [nM] | Compound
23 | 198 | COc1ncc(-c2cn3cc(CN4CCN(S(C)(=O)=O)CC4)nc3c(N3CCOCC3)n2)cn1 [Compound 2-67]
24 | 14 | CS(=O)(=O)N1CCN(Cc2cn3cc(-c4ccc(N)nc4)nc(N4CCOCC4)c3n2)CC1 [Compound 2-66]
25 | 77 | CS(=O)(=O)N1CCN(Cc2cn3cc(-c4cnc5[nH]ccc5c4)nc(N4CCOCC4)c3n2)CC1 [Compound 2-75]
26 | 503 | CS(=O)(=O)N1CCN(C(=O)c2cn3cc(-c4cccc5[nH]ncc45)nc(N4CCOCC4)c3n2)CC1 [Compound 2-16]
